Read-outs that look alike come from different tables or passages of the source.
Experiments:
[1] = system: Mycoplasma gallisepticum (MG) S6; test: In vitro sensitivity test (liquid dilution method); assay type: cell-based; settings: 37°C, 7 days
Description: (§1) Survey of the sensitivity of the compound (I) to various strains of microorganisms was performed by a liquid dilution method […] an agar dilution method, in which the bacteria used were of animal origin and included the following strains (15 strains out of 11 bacteria): Chicken-origin strain: Mycoplasma gallisepticum (MG), Mycoplasma synoviae (MS), Hemophilus paragallinarum (H.pg) and Escherichia coli (E.coli); Pig-origin strain: Mycoplasma hyopneumoniae (Mh), Hemophilus pleuropneumonia (H.pp) and Bordetella bronchiseptica (B.br); Fish-origin strain: Pasteurella piscicida (P.pis) and Streptococcus sp (Str.sp); others: Escherichia coli (E. coli), Salmonella typhimurium (S.typhi) and Staphylococcus aureus (S.au).
(§2) Of these bacteria, the strains belonging to MG, MS and Mh were cultured at 37°C for 7 days by a liquid dilution method, of which the culture medium comprised: 12 % horse-serum added "PPLO" (agar manufactured by Difco) medium for MG; 12 % pig-serum, 0.01 % βNAD (nicotinamide adenine dinucleotide) added Frey medium for MS; 0.5 % lactoalbumin added Hank's solution, 10 % horse-serum, 0.5 % yeast extract (25 %) for Mh, and the agar dilution method was applied to the strains belonging to H.pg, H.pp, S.typhi, E.coli, S.au and B.br. Specifically, the H.pg strain was cultured in a 5 % chicken-serum added chicken bouillon medium and the H.pp strain was cultured in a heart infusion agar added with 10 % sheep defibered blood and 0.05 % βNAD. In case of the H.pg and P.pp strains, observation was made after cultivation at 37°C for 20 hours under 10 % CO₂. Mueller Hinton agar (Difco) was used for the strains belonging to S.typhi, E.coli, S.au and B.br, and observation was made after cultivation at 37°C for 20 to 24 hours. P.pis and Str.sp, both being of fish-origin, were respectively cultured at 25°C for 40 to 48 hours in a 1.5 % NaCl added heart infusion agar and in a sensitive disk medium.

[2] = system: Mycoplasma hyopneumoniae (Mh) ST-11; test: In vitro sensitivity test (liquid dilution method); assay type: cell-based; settings: 37°C, 7 days
Description: as §1, §2

[3] = system: Bordetella bronchiseptica (B.br) ABU-1; test: In vitro sensitivity test (agar dilution method); assay type: cell-based; settings: 37°C, 20 to 24 hours
Description: as §1, §2

[4] = system: Escherichia coli (E.coli) E-17, chicken-origin strain isolated from the field; test: In vitro sensitivity test (agar dilution method); assay type: cell-based; settings: 37°C, 20 to 24 hours
Description: as §1, §2

[5] = system: Escherichia coli (E.coli) JC-2; test: In vitro sensitivity test (agar dilution method); assay type: cell-based; settings: 37°C, 20 to 24 hours
Description: as §1, §2

[6] = system: Hemophilus paragallinarum (H.pg) 221; test: In vitro sensitivity test (agar dilution method); assay type: cell-based; settings: agar dilution, 37°C, 20 hours, 10 % CO₂
Description: as §1, §2

[7] = system: Hemophilus paragallinarum (H.pg) S-1; test: In vitro sensitivity test (agar dilution method); assay type: cell-based; settings: agar dilution, 37°C, 20 hours, 10 % CO₂
Description: as §1, §2

[8] = system: Hemophilus pleuropneumonia (H.pp) M-1; test: In vitro sensitivity test (agar dilution method); assay type: cell-based; settings: 37°C, 20 hours, 10 % CO₂
Description: as §1, §2

[9] = system: Salmonella typhimurium (S.typhi) 13311; test: In vitro sensitivity test (agar dilution method); assay type: cell-based; settings: 37°C, 20 to 24 hours
Description: as §1, §2

[10] = system: Staphylococcus aureus (S.au) 209P; test: In vitro sensitivity test (agar dilution method); assay type: cell-based; settings: 37°C, 20 to 24 hours
Description: as §1, §2

[11] = system: Pasteurella piscicida (P.pis) No. 2; test: In vitro sensitivity test; assay type: cell-based; settings: 25°C, 40 to 48 hours
Description: as §1, §2

[12] = system: Streptococcus sp (Str.sp) SNO6119; test: In vitro sensitivity test; assay type: cell-based; settings: 25°C, 40 to 48 hours
Description: as §1, §2

[13] = system: TS-resistant strain of MG; assay type: in vivo, chicken; settings: for Infectious index Left air sack + / Infectious index Left air sack ++ / Infectious index Left air sack +++ / Infectious index Left air sack - / Infectious index Right air sack + / Infectious index Right air sack ++ / Infectious index Right air sack +++ / Infectious index Right air sack -: count of fowl
[14] = system: Mycoplasma gallisepticum (MG) T-7-T, TS-resistant strain isolated from the field; test: In vitro sensitivity test (liquid dilution method); assay type: cell-based; settings: 37°C, 7 days
Description: as §1, §2

[15] = oral 1.56 mg/kg, 9-days chicken, 2.2 x 10³ CFU/fowl
[16] = oral 6.25 mg/kg, 9-days chicken, 2.2 x 10³ CFU/fowl
[17] = oral 12.5 mg/kg, 9-days chicken, 2.2 x 10³ CFU/fowl
[18] = oral 25.0 mg/kg, 9-days chicken, 2.2 x 10³ CFU/fowl
[19] = oral 3.13 mg/kg, 10-days chicken, 1.2 x 10³ CFU/fowl
[20] = oral 6.25 mg/kg, 10-days chicken, 1.2 x 10³ CFU/fowl
[21] = oral 12.5 mg/kg, 10-days chicken, 1.2 x 10³ CFU/fowl
[22] = oral 25.0 mg/kg, 10-days chicken, 1.2 x 10³ CFU/fowl

CNC[C@@]12CCC[C@@H]1CN(c1c(Cl)cc3c(=O)c(C(=O)O)cn(C4CC4)c3c1Cl)C2.Cl (relative stereo) [I-10, 7-[(1R*,5S*)-1-methylaminomethyl-3-azabicyclo[3.3.0]octan-3-yl]-1-cyclopropyl-6,8-dichloro-1,4-dihydro-4-oxo-3-quinoline carboxylic acid hydrochloride]
In vitro Sensitivity Test MG S6 [1]: 0.00625 µg/mL | In vitro Sensitivity Test Mh ST-11 [2]: 0.05 µg/mL | In vitro Sensitivity Test B.br ABU-1 [3]: 12.5 µg/mL | In vitro Sensitivity Test E.coli E-17 [4]: 0.39 µg/ml | In vitro Sensitivity Test E.coli JC-2 [5]: 0.78 µg/mL | In vitro Sensitivity Test H.pg 221 [6]: 0.78 µg/mL | In vitro Sensitivity Test H.pg S-1 [7]: 0.39 µg/mL | In vitro Sensitivity Test H.pp M-1 [8]: 0.78 µg/mL | In vitro Sensitivity Test S.typhi 13311 [9]: 0.78 µg/mL | In vitro Sensitivity Test S.au 209P [10]: 0.025 to 0.05 µg/mL | In vitro Sensitivity Test P.pis No. 2 [11]: 1.56 µg/mL | In vitro Sensitivity Test Str.sp SNO6119 [12]: 0.78 µg/mL | Infectious index Left air sack + [13, 15]: 0 | Infectious index Left air sack ++ [13, 15]: 0 | Infectious index Left air sack +++ [13, 15]: 0 | Infectious index Left air sack - [13, 15]: 4 | Infectious index Right air sack + [13, 15]: 2 | Infectious index Right air sack ++ [13, 15]: 0 | Infectious index Right air sack +++ [13, 15]: 1 | Infectious index Right air sack - [13, 15]: 1 | Infectious index Left air sack + [13, 16]: 1 | Infectious index Left air sack ++ [13, 16]: 0 | Infectious index Left air sack +++ [13, 16]: 0 | Infectious index Left air sack - [13, 16]: 4 | Infectious index Right air sack + [13, 16]: 2 | Infectious index Right air sack ++ [13, 16]: 2 | Infectious index Right air sack +++ [13, 16]: 0 | Infectious index Right air sack - [13, 16]: 1 | Infectious index Left air sack + [13, 17]: 0 | Infectious index Left air sack ++ [13, 17]: 0 | Infectious index Left air sack +++ [13, 17]: 0 | Infectious index Left air sack - [13, 17]: 5 | Infectious index Right air sack + [13, 17]: 0 | Infectious index Right air sack ++ [13, 17]: 0 | Infectious index Right air sack +++ [13, 17]: 0 | Infectious index Right air sack - [13, 17]: 5 | Infectious index Left air sack + [13, 18]: 0 | Infectious index Left air sack ++ [13, 18]: 0 | Infectious index Left air sack +++ [13, 18]: 0 | Infectious index Left air sack - [13, 18]: 5 | Infectious index Right air sack + [13, 18]: 0 | Infectious index Right air sack ++ [13, 18]: 0 | Infectious index Right air sack +++ [13, 18]: 0 | Infectious index Right air sack - [13, 18]: 5 | Number of fowl having air sack lesions [13, 15]: 3 | Number of fowl having air sack lesions [13, 16]: 4 | Number of fowl having air sack lesions [13, 17]: 0 | Number of fowl having air sack lesions [13, 18]: 0

CNC[C@@]12CCC[C@@H]1CN(c1cc3c(cc1F)c(=O)c(C(=O)O)cn3C1CC1)C2 (relative stereo) [I-1, 7-[(1R*,5S*)-1-methylaminomethyl-3-azabicyclo[3.3.0]octan-3-yl]-1-cyclopropyl-6-fluoro-1,4-dihydro-4-oxo-3-quinolinecarboxylic acid]
In vitro Sensitivity Test MG S6 [1]: 0.0125 µg/mL | In vitro Sensitivity Test MG T-7-T [14]: 0.025 µg/mL | In vitro Sensitivity Test B.br ABU-1 [3]: 12.5 µg/mL | In vitro Sensitivity Test E.coli E-17 [4]: 0.2 µg/ml | In vitro Sensitivity Test E.coli JC-2 [5]: 0.2 µg/mL | In vitro Sensitivity Test H.pg 221 [6]: 0.78 µg/mL | In vitro Sensitivity Test H.pg S-1 [7]: 0.78 µg/mL | In vitro Sensitivity Test H.pp M-1 [8]: 0.39 µg/mL | In vitro Sensitivity Test S.typhi 13311 [9]: 0.2 µg/mL | In vitro Sensitivity Test S.au 209P [10]: 0.025 µg/mL | In vitro Sensitivity Test P.pis No. 2 [11]: 0.78 µg/mL | In vitro Sensitivity Test Str.sp SNO6119 [12]: 0.78 µg/mL | Infectious index Left air sack + [13, 19]: 1 | Infectious index Left air sack ++ [13, 19]: 0 | Infectious index Left air sack +++ [13, 19]: 0 | Infectious index Left air sack - [13, 19]: 4 | Infectious index Right air sack + [13, 19]: 1 | Infectious index Right air sack ++ [13, 19]: 3 | Infectious index Right air sack +++ [13, 19]: 1 | Infectious index Right air sack - [13, 19]: 0 | Infectious index Left air sack + [13, 20]: 0 | Infectious index Left air sack ++ [13, 20]: 0 | Infectious index Left air sack +++ [13, 20]: 0 | Infectious index Left air sack - [13, 20]: 5 | Infectious index Right air sack + [13, 20]: 3 | Infectious index Right air sack ++ [13, 20]: 1 | Infectious index Right air sack +++ [13, 20]: 0 | Infectious index Right air sack - [13, 20]: 1 | Infectious index Left air sack + [13, 21]: 0 | Infectious index Left air sack ++ [13, 21]: 0 | Infectious index Left air sack +++ [13, 21]: 0 | Infectious index Left air sack - [13, 21]: 5 | Infectious index Right air sack + [13, 21]: 0 | Infectious index Right air sack ++ [13, 21]: 1 | Infectious index Right air sack +++ [13, 21]: 0 | Infectious index Right air sack - [13, 21]: 4 | Infectious index Left air sack + [13, 22]: 0 | Infectious index Left air sack ++ [13, 22]: 0 | Infectious index Left air sack +++ [13, 22]: 0 | Infectious index Left air sack - [13, 22]: 5 | Infectious index Right air sack + [13, 22]: 0 | Infectious index Right air sack ++ [13, 22]: 0 | Infectious index Right air sack +++ [13, 22]: 0 | Infectious index Right air sack - [13, 22]: 5 | antimicrobial activity compared with ERFX ([13]; in vivo, po): nearly equal potency to ERFX | Number of fowl having air sack lesions [13, 19]: 5 | Number of fowl having air sack lesions [13, 20]: 4 | Number of fowl having air sack lesions [13, 21]: 1 | Number of fowl having air sack lesions [13, 22]: 0

From EP0429304A2, “Pyridone-carboxylic acid derivatives and their use as veterinary medicines” (SHIONOGI SEIYAKU KABUSHIKI KAISHA trading under the name of …, priority 1989, dated 1991)
